From ChEMBL document CHEMBL1132426, “Inhibitors of the C(2)-symmetric HIV-1 protease: nonsymmetric binding of a symmetric cyclic sulfamide with ketoxime groups in the P2/P2' side chains” (J Med Chem, 1999) come the findings set out here.

The assay addresses Human immunodeficiency virus type 1 protease (Human immunodeficiency virus 1, UniProt Q72874). Kind of assay: Inhibitory activity against HIV-1 Protease expressed in Escherichia coli.

As to `COC(=O)c1ccc(CN2[C@H](COc3ccccc3)[C@H](O)[C@@H](O)[C@@H](COc3ccccc3)N(Cc3ccc(C(=O)OC)cc3)S2(=O)=O)cc1`, the inhibitory constant (Ki) is 84 nM. Take `O=S1(=O)N(Cc2ccc(CO)cc2)[C@H](COc2ccccc2)[C@H](O)[C@@H](O)[C@@H](COc2ccccc2)N1Cc1ccc(CO)cc1`: the inhibition constant (Ki) was found to be 3.1 nM. Molecule `C/C(=N/O)c1cccc(CN2[C@H](COc3ccccc3)[C@H](O)[C@@H](O)[C@@H](COc3ccccc3)N(Cc3cccc(/C(C)=N\O)c3)S2(=O)=O)c1` gave a Ki of 3.4 nM. As for `COC(Cc1cccc(CN2[C@H](COc3ccccc3)[C@H](O)[C@@H](O)[C@@H](COc3ccccc3)N(Cc3cccc(CC(OC)OC)c3)S2(=O)=O)c1)OC`, the figure is 540 nM. As for `O=S1(=O)N(Cc2cccc(CCO)c2)[C@H](COc2ccccc2)[C@H](O)[C@@H](O)[C@@H](COc2ccccc2)N1Cc1cccc(CCO)c1`, the figure is 43 nM; as for `CC(=O)c1cccc(CN2[C@H](COc3ccccc3)[C@H](O)[C@@H](O)[C@@H](COc3ccccc3)N(Cc3cccc(C(C)=O)c3)S2(=O)=O)c1`, 59 nM.
